Measurements: patent publication US5891882A, “Benzopyranopyrrole and benzopyranopyridine α-1 adenergic compounds” (priority 1997, dated 1999)
Where a name gives a salt, the structure may show the parent alone. Read-outs that look alike come from different tables or passages of the source.

What was measured:
[1] = target: T1, α-1A adrenoreceptor (rat submaxillary gland) (Rattus norvegicus, UniProt P43140); test: In vitro [3H]-prazosin radioligand binding, pharmacologically defined α-1A adrenoreceptor (rat submaxillary gland)
T1 construct: Rat submaxillary glands were used for α-1A adrenoreceptors; from tissue; host or cells: rat submaxillary gland membranes
T1 sequence (P43140 1-466): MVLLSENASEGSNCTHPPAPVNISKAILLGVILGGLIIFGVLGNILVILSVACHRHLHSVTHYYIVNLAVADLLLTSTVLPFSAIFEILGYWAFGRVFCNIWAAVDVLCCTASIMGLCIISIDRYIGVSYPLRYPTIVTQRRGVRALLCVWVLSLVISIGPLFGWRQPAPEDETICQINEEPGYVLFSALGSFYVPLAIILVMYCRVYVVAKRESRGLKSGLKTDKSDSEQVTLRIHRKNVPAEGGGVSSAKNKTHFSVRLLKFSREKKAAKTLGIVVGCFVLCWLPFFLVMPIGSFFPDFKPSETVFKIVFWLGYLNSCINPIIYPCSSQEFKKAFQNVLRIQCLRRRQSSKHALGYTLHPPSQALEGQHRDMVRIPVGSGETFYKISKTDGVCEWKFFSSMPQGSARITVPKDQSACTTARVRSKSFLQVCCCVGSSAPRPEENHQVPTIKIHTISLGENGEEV
Procedure: Additionally, binding affinity against the pharmacologically defined α-1A adrenoreceptor (rat submaxillary gland) was measured.
On the fifth day of culture, growth medium was removed from cells grown in roller bottles, and the cells were washed twice with PBS (Sigma, 120 mM NaCl, 2.7 mM KCl, 10 mM Na2 HPO4 --NaH2 PO4, pH=7.4). Cells were detached from the roller bottles by incubating for 15 minutes at 37° C. in a Tris-EDTA solution (10 mM Tris, 100 mM NaCl, 1 mM EDTA, pH=7.4). The cell suspension from each roller bottle was decanted into tared centrifuge tubes and kept on ice. An aliquot of each cell suspension was generally taken for cell counting. Cells were centrifuged at 3000×G for 5 min at 2°-4° C., washed with PBS and recentrifuged. The supernatant was decanted and the pellet weighed to determine the wet weight of cells. Cells were washed a final time in 40 vol 5 mM Tris-HCl, 5 mM EDTA, pH=7.7, and centrifuged at 40,000×G for 10 minutes. Cells were homogenized in 10 mL of 50 mM Tris-HCl, 5 mM EDTA (pH=7.4) and diluted to 40 mL/tube. Homogenates were centrifuged at 40,000×G for 10 minutes. The supernatant was decanted and the pellets rehomogenized in 50 mM Tris-HCl (pH=7.4) and centrifuged as before. The supernatant was decanted and the homogenate resuspended in 6.25 volumes (per gram wet weight) of 50 mM Tris-HCl and aliquots of the pooled homogenates frozen in liquid N2 and stored at -70° C. until the time of assay. Rat submaxillary glands were used for α-1A adrenoreceptors and were prepared essentially as described (Michel, A. D., Loury, D. N. and Whiting, R. L., Brit. J. Pharmacol. 98: 83-889 (1989)).
Receptor binding assays for α-1 adrenoreceptors were performed essentially as described by Greengrass and Bremner (Eur. J. Pharmacol. 55: 323-326 (1979)). […] Radioactivity was determined by standard liquid scintillation techniques. Data were analyzed as previously described (Hancock, A. A., Kyncl, J. J., Martin, Y. C. and DeBernardis, J. F., J Receptor Res. 8: 23-46 (1988)).

[2] = target: T2, α-1A adrenoreceptor (rat vas deferens) (Rattus norvegicus, UniProt P43140); test: Functional antagonism: inhibition of phenylephrine-induced contraction of rat vas deferens; format: cell-based
T2 construct: from tissue; host or cells: rat vas deferens
T2 sequence (P43140 1-466): T1 sequence (P43140 1-466)
Description: (§1) Functional assays indicative of pharmacologically defined α-1 adrenoreceptors were used to further characterize compounds. Inhibition of phenylephrine (PE)-induced contraction of canine prostate smooth muscle can be correlated with α-1A adrenoreceptor activation. […] For each of these models, agonist dose response curves were repeated against increasing concentrations of test agent to derive a Schild plot [log ([…]) against log (molarity of test agent)] to determine the pA2.

[3] = target: T3, α-1B adrenoreceptor (rat spleen) (Rattus norvegicus, UniProt P15823); test: Functional antagonism: inhibition of phenylephrine-induced contraction of rat spleen; format: cell-based
T3 construct: from tissue; host or cells: rat spleen
T3 sequence (P15823 1-515): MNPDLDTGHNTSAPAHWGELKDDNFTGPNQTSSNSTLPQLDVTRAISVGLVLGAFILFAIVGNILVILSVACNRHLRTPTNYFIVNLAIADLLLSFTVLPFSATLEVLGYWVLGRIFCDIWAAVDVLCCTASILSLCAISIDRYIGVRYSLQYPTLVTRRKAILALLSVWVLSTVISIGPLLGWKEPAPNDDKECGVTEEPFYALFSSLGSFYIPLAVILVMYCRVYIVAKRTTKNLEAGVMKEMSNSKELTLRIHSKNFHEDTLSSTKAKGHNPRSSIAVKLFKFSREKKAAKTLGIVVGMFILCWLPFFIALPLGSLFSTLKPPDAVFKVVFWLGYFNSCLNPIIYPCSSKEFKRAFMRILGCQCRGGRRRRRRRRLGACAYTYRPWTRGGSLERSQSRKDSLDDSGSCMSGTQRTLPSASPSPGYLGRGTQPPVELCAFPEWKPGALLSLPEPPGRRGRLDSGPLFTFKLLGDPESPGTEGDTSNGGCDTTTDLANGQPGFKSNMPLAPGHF
Description: as §1

[4] = rat submaxillary gland, [3H]prazosin 0.2 nM, read-out: Radioligand Binding (Ki; nM) 1A (Rat)

Structure (SMILES): COc1ccc2c(n1)sc1c(=O)n(CCCCN3C[C@@H]4COc5cccc(OC)c5[C@@H]4C3)c(=O)[nH]c12 [Example 33, hydrochloride]
- Ki [1, 4]: 0.811 nM
- In Vitro Characterization (pA2) Rat Vas ([2]; rat vas deferens, phenylephrine-induced contraction, Schild plot): 9.02
- In Vitro Characterization (pA2) Rat Spleen ([3]; rat spleen, phenylephrine-induced contraction, Schild plot): 7.83

Structure (SMILES): COc1cc2[nH]c(=O)n(CCN3CC[C@H]4c5c(OC)cccc5OC[C@@H]4C3)c(=O)c2cc1OC (relative stereo) [Example 91, 3-[2-((±)-trans-10-Methoxy-1,3,4,4a,5,10b-hexahydro-2H-[1]-benzopyrano[3,4-c]pyrido-3-yl)ethyl]-6,7-dimethoxy-quinazoline-2,4(1H,3H)-dione hydrochloride]
- Ki [1, 4]: 0.102 nM

Structure (SMILES): COc1cccc2c1[C@@H]1CCN(CCCCn3c(=O)[nH]c4c(sc5ccccc54)c3=O)C[C@H]1CO2 (relative stereo) [Example 87, 3-[4-((±)-trans-10-Methoxy-1,3,4,4a,5,10b-hexahydro-2H-[1]-benzopyrano[3,4-c]pyrido-3-yl)butyl]-[1]-benzthieno[3,2-d]pyrimidine-2,4(1H,3H)-dione hydrochloride]
- Ki [1]: 0.371 nM
- Kb [2]: 2.14 nM
- Kb [3]: 72.4 nM

Structure (SMILES): COc1cccc2c1[C@@H]1CCN(CCCCn3c(=O)[nH]c4c(sc5cccnc54)c3=O)C[C@H]1CO2 (relative stereo) [Example 88, 3-[4-((±)-trans-10-Methoxy-1,3,4,4a,5,10b-hexahydro-2H-[1]-benzopyrano[3,4-c]pyrido-3-yl)butyl]-pyrido[2',3':4,5]thieno[3,2-d]pyrimidine-2,4(1H,3H)-dione hydrochloride]
- Ki [1]: 0.188 nM
- Kb [2]: 1.82 nM
- Kb [3]: 72.4 nM
